Read-outs that look alike come from different tables or passages of the source.
Key:
Format in all cases: cell-based, human
RCC4 = test: XTT cell viability assay, RCC4 RCC cells; settings: Homo sapiens, RCC4, 48 h, SD 10%, mean of three experiments, read-out: IC50 R4 (Kidney RCC)
Description: (§1) Fifty microliters of sodium 3′-[1-phenylaminocarbonyl)-3,4-tetrazolium]-bis(4-methoxy-6-nitro) benzene sulfonic acid hydrate (XTT) reagent was added to each well. The assay is based on the cleavage of the yellow tetrazolium salt XTT to form an orange formazan dye by metabolically active cells. This bio-reduction occurs in viable cells only and is related to NAD(P)H production through glycolysis. Therefore, the amount of formazan dye measured at 490 nm directly correlated with the number of metabolically active cells reflecting cell proliferation and viability. Each assay was performed in quadruplicate.

786-O = test: XTT cell viability assay, 786-O RCC cells; settings: for IC50: Homo sapiens, 786-0
Description: as §1

MDA-MD-231 = test: XTT cell viability assay, breast cancer cells; settings: Homo sapiens, 48 h, SD 10%, mean of three experiments
Description: as §1

SKM1 = test: XTT cell viability assay, SKM1 MDS cells; settings: Homo sapiens, SKM-1, 48 h, SD 10%, mean of three experiments, read-out: IC50 SK (MDS)
Description: as §1

HuVEC = test: XTT cell viability assay, HuVEC; settings: 48 h, CXCL5 or CXCL7 100 ng/ml
Description: as §1

[1] = tested on: sunitinib-resistant 786-O cells (786R); test: XTT cell viability assay, sunitinib-resistant 786-O cells; settings: 1 to 10 µM 48 h, 2.5 µM 24 to 96 h
Description: as §1

[2] = tested on: cisplatin-resistant CAL27 cells (CAL27R); test: XTT cell viability assay, cisplatin-resistant CAL27 cells; settings: 1 to 10 µM 48 h, 2.5 µM 24 to 96 h
Description: as §1

IC50 (786-O; CXCR1+/CXCR2+, read-out: IC50 786-O): 2000 nM
IC50 (786-O; XTT assay, 48 h, SD 10%, mean of three experiments, read-out: IC50 786 (Kidney RCC)): 2000 nM
IC50 (MDA-MD-231): 2500 nM
IC50 (SKM1): 5000 nM
Structure (SMILES): O=C(Nc1cccc(Cl)c1)Nc1nc2ccc([N+](=O)[O-])cc2s1 [C29]
IC50 (RCC4): 5000 nM
Selectivity index 786-O (786-O; SI = IC50 in normal cells (15S)/IC50 in 786-O): 6.25
viability of sensitive 786-O RCC cells compared with sunitinib (786-O; XTT, 1 to 10 µM 48 h, 2.5 µM 24 to 96 h): as efficiently as sunitinib
basal and CXCL5/CXCL7-dependent HuVECs viability (HuVEC): inhibited
effect on cell viability of sunitinib-resistant 786-O cells [1]: conserved
effect on cisplatin-resistant CAL27 cell viability [2]: equivalent
